Converted amounts (≈) assume the structure as drawn.
Experiments:
Format in all cases: functional
[1] = test system: Staphylococcus aureus; experiment: Antibacterial activity against methicillin-resistant Staphylococcus aureus N315 assessed as inhibition of bacterial growth by continuous dilution method
[2] = test system: Enterococcus faecalis; experiment: Antibacterial activity against Enterococcus faecalis assessed as inhibition of bacterial growth by continuous dilution method
[3] = test system: Staphylococcus aureus; experiment: Antibacterial activity against Staphylococcus aureus assessed as inhibition of bacterial growth by continuous dilution method
[4] = test system: Staphylococcus aureus; experiment: Antibacterial activity against Staphylococcus aureus ATCC 25923 assessed as inhibition of bacterial growth by continuous dilution method
[5] = test system: Staphylococcus aureus; experiment: Antibacterial activity against Staphylococcus aureus ATCC 29213 assessed as inhibition of bacterial growth by continuous dilution method
[6] = test system: Klebsiella pneumoniae; experiment: Antibacterial activity against Klebsiella pneumoniae assessed as inhibition of bacterial growth by continuous dilution method
[7] = test system: Escherichia coli; experiment: Antibacterial activity against Escherichia coli assessed as inhibition of bacterial growth by continuous dilution method
[8] = test system: Pseudomonas aeruginosa; experiment: Antibacterial activity against Pseudomonas aeruginosa assessed as inhibition of bacterial growth by continuous dilution method
[9] = test system: Acinetobacter baumannii; experiment: Antibacterial activity against Acinetobacter baumannii assessed as inhibition of bacterial growth by continuous dilution method
[10] = test system: Pseudomonas aeruginosa; experiment: Antibacterial activity against Pseudomonas aeruginosa ATCC 27853 assessed as inhibition of bacterial growth by continuous dilution method
[11] = test system: Escherichia coli; experiment: Antibacterial activity against Escherichia coli ATCC 25922 assessed as inhibition of bacterial growth by continuous dilution method

SMILES	MIC [1]	MIC [2]	MIC [3]	MIC [4]	MIC [5]	MIC [6]	MIC [7]	MIC [8]	MIC [9]	MIC [10]	MIC [11]
Nc1ccc(S(=O)(=O)Nc2nccs2)cc1 [SULFATHIAZOLE]	64 µg/mL (≈ 251 µM)	128 µg/mL (≈ 501 µM)	128 µg/mL (≈ 501 µM)	64 µg/mL (≈ 251 µM)	128 µg/mL (≈ 501 µM)	128 µg/mL (≈ 501 µM)	256 µg/mL (≈ 1000 µM)	128 µg/mL (≈ 501 µM)	128 µg/mL (≈ 501 µM)	512 µg/mL (≈ 2010 µM)	128 µg/mL (≈ 501 µM)
CCCCCCO/N=C(/CS(=O)(=O)c1ccc(NC(C)=O)cc1)c1nccs1	32 µg/mL (≈ 75.6 µM)	32 µg/mL (≈ 75.6 µM)	64 µg/mL (≈ 151 µM)	64 µg/mL (≈ 151 µM)	128 µg/mL (≈ 302 µM)	64 µg/mL (≈ 151 µM)	32 µg/mL (≈ 75.6 µM)	32 µg/mL (≈ 75.6 µM)	128 µg/mL (≈ 302 µM)	32 µg/mL (≈ 75.6 µM)	8 µg/mL (≈ 18.9 µM)
CC(=O)Nc1ccc(S(=O)(=O)C/C(=N/NC(=O)c2ccccc2O)c2nccs2)cc1	64 µg/mL (≈ 140 µM)	128 µg/mL (≈ 279 µM)	128 µg/mL (≈ 279 µM)	64 µg/mL (≈ 140 µM)	256 µg/mL (≈ 558 µM)	128 µg/mL (≈ 279 µM)	128 µg/mL (≈ 279 µM)	256 µg/mL (≈ 558 µM)	128 µg/mL (≈ 279 µM)	16 µg/mL (≈ 34.9 µM)	64 µg/mL (≈ 140 µM)
CC(=O)Nc1ccc(S(=O)(=O)C/C(=N/Nc2ccc(Cl)cc2)c2nccs2)cc1	256 µg/mL (≈ 570 µM)	64 µg/mL (≈ 143 µM)	128 µg/mL (≈ 285 µM)	256 µg/mL (≈ 570 µM)	128 µg/mL (≈ 285 µM)	256 µg/mL (≈ 570 µM)	128 µg/mL (≈ 285 µM)	256 µg/mL (≈ 570 µM)	256 µg/mL (≈ 570 µM)	128 µg/mL (≈ 285 µM)	128 µg/mL (≈ 285 µM)
CC(=O)Nc1ccc(S(=O)(=O)/C(=C\c2nccs2)C(=O)c2nccs2)cc1	8 µg/mL (≈ 19.1 µM)	16 µg/mL (≈ 38.1 µM)	32 µg/mL (≈ 76.3 µM)	4 µg/mL (≈ 9.53 µM)	64 µg/mL (≈ 153 µM)	16 µg/mL (≈ 38.1 µM)	16 µg/mL (≈ 38.1 µM)	128 µg/mL (≈ 305 µM)	128 µg/mL (≈ 305 µM)	128 µg/mL (≈ 305 µM)	128 µg/mL (≈ 305 µM)
CC(=O)Nc1ccc(S(=O)(=O)/C(=C\c2ccc(C(F)(F)F)cc2)C(=O)c2nccs2)cc1	256 µg/mL (≈ 533 µM)	128 µg/mL (≈ 266 µM)	256 µg/mL (≈ 533 µM)	128 µg/mL (≈ 266 µM)	128 µg/mL (≈ 266 µM)	256 µg/mL (≈ 533 µM)	256 µg/mL (≈ 533 µM)	64 µg/mL (≈ 133 µM)	128 µg/mL (≈ 266 µM)	64 µg/mL (≈ 133 µM)	256 µg/mL (≈ 533 µM)
C=CCO/N=C(/CS(=O)(=O)c1ccc(N)cc1)c1nccs1	128 µg/mL (≈ 379 µM)	16 µg/mL (≈ 47.4 µM)	64 µg/mL (≈ 190 µM)	32 µg/mL (≈ 94.8 µM)	32 µg/mL (≈ 94.8 µM)	32 µg/mL (≈ 94.8 µM)	32 µg/mL (≈ 94.8 µM)	64 µg/mL (≈ 190 µM)	64 µg/mL (≈ 190 µM)	16 µg/mL (≈ 47.4 µM)	16 µg/mL (≈ 47.4 µM)
CCO/N=C(/CS(=O)(=O)c1ccc(NC(C)=O)cc1)c1nccs1	64 µg/mL (≈ 174 µM)	32 µg/mL (≈ 87.1 µM)	128 µg/mL (≈ 348 µM)	128 µg/mL (≈ 348 µM)	64 µg/mL (≈ 174 µM)	64 µg/mL (≈ 174 µM)	32 µg/mL (≈ 87.1 µM)	128 µg/mL (≈ 348 µM)	256 µg/mL (≈ 697 µM)	64 µg/mL (≈ 174 µM)	16 µg/mL (≈ 43.5 µM)
CC(=O)Nc1ccc(S(=O)(=O)C/C(=N/NC(=O)c2ccncc2)c2nccs2)cc1	32 µg/mL (≈ 72.2 µM)	4 µg/mL (≈ 9.02 µM)	16 µg/mL (≈ 36.1 µM)	8 µg/mL (≈ 18 µM)	4 µg/mL (≈ 9.02 µM)	32 µg/mL (≈ 72.2 µM)	128 µg/mL (≈ 289 µM)	8 µg/mL (≈ 18 µM)	32 µg/mL (≈ 72.2 µM)	4 µg/mL (≈ 9.02 µM)	128 µg/mL (≈ 289 µM)
CC(=O)Nc1ccc(S(=O)(=O)C/C(=N/Nc2ccccc2)c2nccs2)cc1	128 µg/mL (≈ 309 µM)	128 µg/mL (≈ 309 µM)	256 µg/mL (≈ 618 µM)	256 µg/mL (≈ 618 µM)	256 µg/mL (≈ 618 µM)	256 µg/mL (≈ 618 µM)	256 µg/mL (≈ 618 µM)	256 µg/mL (≈ 618 µM)	64 µg/mL (≈ 154 µM)	256 µg/mL (≈ 618 µM)	256 µg/mL (≈ 618 µM)
CC(=O)Nc1ccc(S(=O)(=O)C/C(=N/Nc2ccc([N+](=O)[O-])cc2)c2nccs2)cc1	256 µg/mL (≈ 557 µM)	256 µg/mL (≈ 557 µM)	32 µg/mL (≈ 69.6 µM)	256 µg/mL (≈ 557 µM)	256 µg/mL (≈ 557 µM)	256 µg/mL (≈ 557 µM)	64 µg/mL (≈ 139 µM)	32 µg/mL (≈ 69.6 µM)	256 µg/mL (≈ 557 µM)	64 µg/mL (≈ 139 µM)	32 µg/mL (≈ 69.6 µM)
CC(=O)Nc1ccc(S(=O)(=O)C/C(=N/NC(=O)c2ccccc2)c2nccs2)cc1	256 µg/mL (≈ 579 µM)	32 µg/mL (≈ 72.3 µM)	128 µg/mL (≈ 289 µM)	32 µg/mL (≈ 72.3 µM)	256 µg/mL (≈ 579 µM)	256 µg/mL (≈ 579 µM)	16 µg/mL (≈ 36.2 µM)	128 µg/mL (≈ 289 µM)	256 µg/mL (≈ 579 µM)	4 µg/mL (≈ 9.04 µM)	64 µg/mL (≈ 145 µM)
CC(=O)Nc1ccc(S(=O)(=O)/C(=C\c2ccc(F)cc2F)C(=O)c2nccs2)cc1	64 µg/mL (≈ 143 µM)	128 µg/mL (≈ 285 µM)	128 µg/mL (≈ 285 µM)	256 µg/mL (≈ 571 µM)	256 µg/mL (≈ 571 µM)	128 µg/mL (≈ 285 µM)	128 µg/mL (≈ 285 µM)	128 µg/mL (≈ 285 µM)	128 µg/mL (≈ 285 µM)	64 µg/mL (≈ 143 µM)	128 µg/mL (≈ 285 µM)
C=CCO/N=C(/CS(=O)(=O)c1ccc(NC(C)=O)cc1)c1nccs1	64 µg/mL (≈ 169 µM)	32 µg/mL (≈ 84.3 µM)	128 µg/mL (≈ 337 µM)	32 µg/mL (≈ 84.3 µM)	64 µg/mL (≈ 169 µM)	64 µg/mL (≈ 169 µM)	64 µg/mL (≈ 169 µM)	128 µg/mL (≈ 337 µM)	128 µg/mL (≈ 337 µM)	64 µg/mL (≈ 169 µM)	16 µg/mL (≈ 42.2 µM)

Source: ChEMBL document CHEMBL5325403, “Benzenesulfonyl thiazoloimines as unique multitargeting antibacterial agents towards Enterococcus faecalis” (Eur J Med Chem, 2023)
